PubChem BioAssay (NCI)
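Assay format: 96-well plates, 48-hour exposure. At the GI50, growth is halved. TGI denotes the concentration required for complete inhibition of growth.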

Key:
Experiment in all cases: DTP human tumour cell line panel, 48 h
EKVX NSCLC = system: EKVX NSCLC
NCI-H23 lung = system: NCI-H23 lung
OVCAR-4 ovarian = system: OVCAR-4 ovarian
RPMI-8226 leukemia = system: RPMI-8226 leukemia
SK-MEL-2 melanoma = system: SK-MEL-2 melanoma
SK-OV-3 ovarian = system: SK-OV-3 ovarian
TK-10 renal = system: TK-10 renal
UACC-62 melanoma = system: UACC-62 melanoma
MALME-3M melanoma = system: MALME-3M melanoma

Row | Compound | TGI (EKVX NSCLC) [µM] | TGI (NCI-H23 lung) [µM] | TGI (OVCAR-4 ovarian) [µM] | TGI (RPMI-8226 leukemia) [µM] | TGI (SK-MEL-2 melanoma) [µM] | TGI (SK-OV-3 ovarian) [µM] | TGI (TK-10 renal) [µM] | TGI (UACC-62 melanoma) [µM] | TGI (MALME-3M melanoma) [µM] | GI50 (EKVX NSCLC) [µM] | GI50 (MALME-3M melanoma) [µM] | GI50 (NCI-H23 lung) [µM] | GI50 (OVCAR-4 ovarian) [µM] | GI50 (RPMI-8226 leukemia) [µM] | GI50 (SK-MEL-2 melanoma) [µM] | GI50 (SK-OV-3 ovarian) [µM] | GI50 (TK-10 renal) [µM] | GI50 (UACC-62 melanoma) [µM]
1 | COC1OC(C(C)O)C2OC(C)(C)OC12 (stereo unspecified) | > 100 | > 100 | > 100 | > 100 | > 100 | > 100 | > 100 | > 100 |  |  |  |  |  |  |  |  |  | 
2 | Clc1ccc(/C=C/c2nc(Cl)c(-c3ccc(Cl)cc3)c(Cl)n2)cc1 | > 100 | > 100 | > 100 | > 100 | > 100 | > 100 | > 100 | > 100 | > 100 |  |  |  |  |  |  |  |  | 
3 | O=C(Cn1c2ccccc2c2ccncc21)N/N=C\c1ccc2ccccc2c1 | > 100 | 52.6 | 80.8 | > 100 | 42 | 39.4 | 54.7 | 42.9 | 45.6 | 24.8 | 11.4 | 17.6 | 15.4 | 7.88 | 19.2 | 18.2 | 27.3 | 18
4 | COc1cc(-c2oc3c(OC)c(O)cc(O)c3c(=O)c2OC)ccc1O | 72.5 | > 100 | 87.7 | 46.3 | 15.3 | 9.15 | 69.6 | 24.6 | 97.5 |  |  |  |  |  |  |  |  | 
5 | Cc1cn(Cc2ccccc2CCl)c(=O)n(Cc2ccccc2CCl)c1=O | 5.13 | 5.43 | 4.83 | 6.36 | 4.29 | 9.62 | 6.53 | 3.16 | 4.02 | 2.26 | 2.03 | 2.19 | 1.98 | 1.93 | 1.32 | 3.27 | 2.92 | 1.67
6 | Cn1ncnc1C1c2n[nH]c(=O)c3cc(F)cc(c23)NC1c1ccc(F)cc1 (stereo unspecified) |  | > 100 | > 100 | > 100 | > 100 | > 100 | > 100 | > 100 | > 100 |  | > 100 |  | 12.7 | > 100 | > 100 | > 42.7 | > 34.2 | > 100
7 | CN(C)C(=S)SCC(N)=O | > 100 | > 100 | > 100 | > 100 | > 100 | > 100 | > 100 | > 100 | > 100 |  |  |  |  |  |  |  |  | 
8 | COc1ccc(CN=C(N)N=C(N)N)cc1OC | > 1000 | > 1000 | > 1000 |  | > 1000 | > 1000 | > 1000 | > 1000 | > 1000 | 40.1 | 365 | 522 | 215 |  | 859 | > 1000 | > 1000 | 558
9 | NS(=O)(=O)c1ccc(N2N=C(c3cccs3)CC2c2ccccc2O)cc1 (stereo unspecified) |  | 8.47 | > 33.3 | 5.29 | 5.16 | 10.1 | 5.47 | 5.09 | 13.5 |  | 4.81 | 1.3 | 2.88 | 1.16 | 1.2 | 1.18 | 1.09 | 1.15
10 | COc1cc2c(cc1OCCCCCn1c3ccccc3c3ccccc31)N=C[C@@H]1CCCN1C2=O | 18.7 | 7.04 | 12.6 |  | 3.24 | 16.8 | 4.84 | 3.8 | 4.72 | 5.27 | 2.2 | 2.69 | 3.09 |  | 1.67 | 4.57 | 2.25 | 1.86
11 | CCCCN(CCCC)CCC(O)c1cc2ccc(C(F)(F)F)cc2c2cc(C(F)(F)F)ccc12 (stereo unspecified) | 26.8 | 6.81 | 13.1 | 6.17 | 4.51 | 15.3 | 4.62 | 6.53 | 5.51 | 9.3 | 2.34 | 2.08 | 3.5 | 2.28 | 2.53 | 3.98 | 2.28 | 2.49
12 | COc1ccc(OC)c(/C=N/N=C2\C(=O)Nc3c(Cl)cc(Cl)cc32)c1 | > 100 | > 100 | > 100 |  | 68.8 | > 100 | > 100 | > 100 | > 100 |  |  |  |  |  |  |  |  | 
13 | C=C(C)C(=O)O[C@H]1CC2=CC(CC(C)=C[C@H]3OC(=O)C(=C)C13)OC2=O (stereo partly specified) | 43.8 | > 100 | > 100 | 9.21 | 72.4 |  | 22.6 | 38.8 | 40.7 |  |  |  |  |  |  |  |  | 
14 | O=CN1N=C(c2ccc(Nc3ccnc4cc(Cl)ccc34)cc2)CC1c1ccc(Cl)cc1 (stereo unspecified) |  | > 100 | > 100 |  | > 100 |  | > 100 | > 100 |  |  |  | 2.77 | 6.48 |  | 7.86 |  | 9.57 | 0.567
15 | COc1ccc2c(c1OC)C(=O)O[C@@H]2[C@H]1c2c(c(Br)c3c(c2OC)OCO3)CCN1C | > 100 | > 100 | > 100 | > 100 | > 100 | > 100 | 94.5 | > 100 |  | 41.8 |  | > 100 | > 100 | 6.97 | > 100 | > 100 | 14.4 | 4.31
16 | CNC(=O)c1cncc(/C=C/c2c(Cl)cccc2Cl)c1 | > 25 | > 25 | > 25 | > 25 |  | > 25 | > 25 | > 25 | > 25 | > 25 | 12.9 | > 25 | 21.9 | > 25 |  | > 25 | 12.9 | > 19.8
17 | CNc1ncc2cc(Oc3ccc(F)cc3F)c(=O)n(C)c2n1 |  | > 25 | > 25 | > 25 | > 25 | > 25 | > 25 | > 25 | > 25 |  | > 25 | > 25 | > 25 | > 25 | > 25 | > 25 | > 23.1 | > 25
